“Also recorded” adds a separate entry of the source.
Legend:
[1] = tested on: human mammary cancer cells (MDA-MB-231); conditions: 1 mM DIME [sic]; within 18 hours; cited from earlier work
[2] = tested on: human lung cancer cells (A 549); test: Growth of human lung cancer cells (Table 2 B); type: cell-based
Description: The effects of these three substances on the growth of human mammary cancer cells (MDA-MB-231) and human lung cancer cells (A 549) are summarized in Table 2.
(×10^3) Cell number per 2 cm^2

[3] = oral, 1 g/Kg/day for two to three months; cited from earlier work
cellular esterases = test: Stability against cellular esterases
Description: Moreover, amide analogs of DIME, having an NH2 or a substituted amino group, may be subject to hydrolysis catalyzed by cellular amidases. Since the hydrolysis product of such a hydrolysis is a carboxylic acid, the same decrease in efficacy can result. In order to decrease the chemical lability in the DIME pharmacophore structure, ketone analogues of DIME may be used.
A more detailed kinetic comparison of DIME, DIPE and DIPP on the kinetics of MTP assembly, in a concentration range of zero to 10 μM drug and a louvered GTP concentration (10 μM), is shown in FIG. 3.

malignant tumors = conditions: cited from earlier work

Question: With `COC(=O)c1cc(I)c(Oc2ccc(OC)cc2)c(I)c1` [DIME, methyl 3,5-diiodo-4-(4'-methoxyphenoxy)benzoate] as the molecule, how does the abnormal spindle structures [1] read?
Answer: induced abnormal spindle structures

Question: And the Cell number ([2]; 2 μM, 48 hours, control 110)?
Answer: 100 ×10^3 cell number per 2 cm^2 w

Question: And the Cell number ([2]; 2 μM, 72 hours, control 190)?
Answer: 180 ×10^3 cell number per 2 cm^2 w

Question: What about the Cell number ([2]; 5 μM + BNPP 150 μM (esterase inhibitor), 48 hours, control 110) of the same molecule?
Answer: 24 ×10^3 cell number per 2 cm^2 w

Question: What about the Cell number ([2]; 5 μM + BNPP 150 μM (esterase inhibitor), 72 hours, control 190) of the same molecule?
Answer: 15 ×10^3 cell number per 2 cm^2 w

Question: What about the Cell number ([2]; 5 μM, 48 hours, control 110) of the same molecule?
Answer: 72 ×10^3 cell number per 2 cm^2 w

Question: And the Cell number ([2]; 5 μM, 72 hours, control 190)?
Answer: 135 ×10^3 cell number per 2 cm^2 w

Question: What about the “effect of esterase inhibitor BNPP on cytocidal action” value ([2]; lung cancer cells, with BNPP) of the same molecule?
Answer: the esterase inhibitor supported the DIME effect (at 72 hrs)

Question: And the toxicity [3]?
Answer: not toxic

Question: What about the stability against esterases (cellular esterases) of the same molecule?
Answer: labile with respect to hydrolysis catalyzed by cellular esterases

Question: And the “anti-tumor activity in vivo” value (malignant tumors)?
Answer: potential tumoricidal agent both in cell cultures and in vivo; also recorded: highly active both in cellular assays and in vivo
